The text below walks through data of paper PMC4418806 (Biochemistry, 2009).

Numbering of substitutions follows the chain as printed.

The target in test [1] is T1, Escherichia coli biotin synthase (BioB), His6-BioB (Escherichia coli, UniProt P12996).
T1 sequence (P12996 1-346): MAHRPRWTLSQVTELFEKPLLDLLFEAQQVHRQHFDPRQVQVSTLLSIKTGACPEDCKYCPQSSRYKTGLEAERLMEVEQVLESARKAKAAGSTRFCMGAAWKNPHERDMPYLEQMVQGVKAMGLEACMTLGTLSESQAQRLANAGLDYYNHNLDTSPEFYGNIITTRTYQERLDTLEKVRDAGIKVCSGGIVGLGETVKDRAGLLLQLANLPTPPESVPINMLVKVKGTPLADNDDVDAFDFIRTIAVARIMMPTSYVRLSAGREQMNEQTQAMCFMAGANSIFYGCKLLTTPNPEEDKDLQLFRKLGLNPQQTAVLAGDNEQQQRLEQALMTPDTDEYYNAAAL
The test is described as follows: […] kDa centrifugal filtration of assay mixture, HPLC. Format: binding. As to conditions: 50 μM enzyme, intermediate formed in situ, after 2 h assay, anaerobic.

Test [2] has as its target T1, Escherichia coli biotin synthase (BioB), His6-BioB. Briefly: […] kDa centrifugal filtration binding assay, HPLC.
Test [3] concerns the target T2, Escherichia coli biotin synthase (BioB), His6-BioB (Escherichia coli, UniProt P12996, N153S).
T2 sequence (P12996 1-346 N153S): T1 sequence (P12996 1-346) with N153S
Briefly: […] kDa centrifugal filtration binding assay, HPLC.

Test [4] deals with T3, Escherichia coli biotin synthase (BioB), His6-BioB (Escherichia coli, UniProt P12996, N153Q).
T3 sequence (P12996 1-346 N153Q): T1 sequence (P12996 1-346) with N153Q
The test is described as follows: […] kDa centrifugal filtration binding assay, HPLC.

Take `O=C(O)CCCCC[C@H]1NC(=O)N[C@H]1CS` [9-MDTB]: the “% bound to protein” value in test [1] was ~ 50%.
Take `C[S+](CC[C@H](N)C(=O)O)C[C@H]1O[C@@H](n2cnc3c(N)ncnc32)[C@H](O)[C@@H]1O` (stereo partly shown) [AdoMet]: the results for the dissociation constant Kd in test [2], in test [3] and in test [4] were 1 ± 0.5 µM, 3 ± 1 µM and 530 ± 180 µM, respectively.
For `C[C@@H]1NC(=O)N[C@@H]1CCCCCC(=O)O` [DTB], the equilibrium dissociation constant (Kd) came to 0.5 ± 1 µM in test [2], 11 ± 3 µM in test [3] and 110 ± 30 µM in test [4].
